{"source": "patent US12492403B2", "about": "“Aptamers and the use thereof in the treatment of cancer” (FUNDACIÓN PARA LA INVESTIGACIÓN BIOMÉDICA DEL HOSPITAL …, priority 2018, dated 2025)", "key": {"[1]": {"tested_on": "orthotopic xenograft of 4T1 cells", "assay": "In vivo efficacy in metastatic orthotopic 4T1 mouse model", "set-up": "species or system BALBc mice", "conditions": "3.6 mg/kg intravenously three times a week", "experimental": "(§1) FIG. 21A-21E. In vivo efficacy of apMNKQ2 in a mouse metastatic model with an orthotopic xenograft of 4T1 cells. (A) Effect of apMNKQ2 aptamer on the proliferation of 4T1 cells (mouse breast tumor line). 4T1 cells were seeded in p96 at a density of 1.5×10^3 cells/well. […] The graph (FIG. 21A) represents the means±SEM of 3 independent experiments. (B) Effect of apMNKQ2 aptamer on migration and invasion of 4T1 cells. Cells were seeded in p6 at a density of 2×10^5 cells/well and transfected with 500 nM apMNKQ2 at 24 hours. At 6 hours they were deprived of serum, and after 24 hours they were collected and re-seeded (4×10^4 cells/well) in a transwell […]. At 24 hours (migration) or 48 h (invasion), the transwell membranes were stained with Hoechst and the cells that had passed through the fluorescence microscopy were quantified. Values (FIG. 21B) represent the mean±SEM of 2-3 independent experiments. In vivo efficacy of apMNKQ2 in a mouse metastatic model with an orthotopic xenograft of 4T1 cells. (C) Evolution of mouse weight on the days of treatment with apMNKQ2 (FIG. 21C). (D) Relative tumor volume (RTV) throughout the days of treatment (FIG. 21D). (E) Number of lung metastases (FIG. 21E). The number of metastases is analyzed by the reverse staining method (with Chinese ink) and the metastases grouped according to their size in four groups (0.5, 1, 2 and >2). The stacked bars correspond to each group and represent the mean±SEM of 8-9 animals (*p<0.05 with respect to the control group).\nThe anti-tumour activity and the effect on and spontaneous metastasis of aptamers in BALBc mice bearing ortothopically […] 4T1 breast tumours. […] As monitoring parameters, the tumor volume, assuming they are ellipsoids, and the weight of the animals were measured. […]\nTo study the ability of apMNKQ2 to reduce metastasis in vivo, an orthotopic xenograft model with a murine tumor line of triple negative breast cancer, 4T1, was used. […] First, the effect of apMNKQ2 on 4T1 cells in vitro was analyzed. […]"}, "4T1 cells": {"tested_on": "4T1 cells", "assay": "MTT activity assay in 4T1 cells", "type": "cell-based, mouse", "conditions": "4T1 cells, 0, 250, 500 and 1000 nM, 48 hours", "experimental": "as §1, with “(C) Evolution of mouse weight on the days of treatment with apMNKQ2 (FIG. 21C). (D) Relative tumor volume (RTV) throughout the days of treatment (FIG. 21D). (E) Number of lung metastases (FIG. 21E).” left out, “The stacked bars correspond to each group and represent the mean±SEM of 8-9 animals (*p<0.05 with respect to the control group).” left out\nMTT activity. […] After 48 hours, the reduction of MTT was determined by means of spectrophotometry in Infinite F200 (TECAN, Switzerland) at 540 nm."}, "MDA-MB-231 cells": {"tested_on": "MDA-MB-231 cells", "assay": "MTT activity assay, aptamers transfected with Lipofectamine 2000", "type": "cell-based, human", "experimental": "(§2) FIG. 3. Effect of the aptamers on MTT activity of MCF7 and MDA-MB-231 cells. The cells were seeded in 96-well plates at a density of 10^4 cells/well. After 16-24 hours, they were transfected with aptamers apMNKQ1, apMNKQ2, apMNKQ3, and apMNKQ4 at 250 nM for 48 hours after which MTT activity assays were performed. The bars represent the mean±SEM of 3-6 independent experiments (*p<0.05, **p<0.01, and ***p<0.001 with respect to the control aptamer AT).\n(§3) FIGS. 8A-8C. Effect of aptamer apMNKQ2 on MTT activity of breast cell lines. MCF7, MDA-MB-231, and MDA-MB-468 cells were seeded in 96-well plates at a density of 10^4 cells/well. […] The graphs represent the means±SEM of 3 independent experiments (*p<0.05, **p<0.01, and ***p<0.001 with respect to the control AT).\n(§4) The Lipofectamine™ 2000 system (Invitrogen, USA) was used to treat cells with the different aptamers. To prepare the DNA-lipofectamine complex, lipofectamine and DNA were separately diluted in opti-MEM (Gibco, USA) and left to incubate at room temperature for 5 minutes. They were then mixed to form lipofectamine-DNA complexes and incubated for 20 minutes at room temperature. Finally, the mixture was added to the cells that had been washed twice with antibiotic-free medium to prevent the interference thereof with lipofectamine. The cells were incubated at 37° C. for 5 hours, after which the reagent was removed and a complete medium was added.\n(§5) MTT activity. The cells were seeded in 96-well plates and after having been transfected, the culture medium was removed and 100 μL/well of MTT at 1 mg/ml in culture medium were added. The plates were incubated for 90 minutes in an incubator with a moisture-saturated environment at 37° C. and 5% CO2/[…] and 100 μL/well of a lysis solution (10% SDS and 10 mM HCl) were added for dissolving the crystals. After 48 hours, the reduction of MTT was determined by means of spectrophotometry in Infinite F200 (TECAN, Switzerland) at 540 nm.\n(§6) The results were expressed as the percentage of viability with respect to the control or in absorbance units."}, "MCF7 cells": {"tested_on": "MCF7 cells", "assay": "MTT activity assay, aptamers transfected with Lipofectamine 2000", "type": "cell-based, human", "experimental": "as §2, §3, §4, §5, §6"}}}
{"substance": "5′TGGGGTGGGCGGGCGGGGGTGGGGGTGGT-3′ (DNA, backbone and methylation of C not given here; further chemistry not fully specified) [apMNKQ2]", "values": [{"measurement": "size of the tumors (relative tumor volume)", "setting": "[1]; 18 days", "result": "does not produce changes"}, {"measurement": "weight of the mice", "setting": "[1]; 18 days", "result": "does not produce changes"}, {"measurement": "number of lung metastasis", "setting": "[1]; statistically significant for metastasis of 2 mm", "result": "decreased"}, {"measurement": "cell proliferation as measured by MTT activity", "setting": "4T1 cells", "result": "does not affect cell proliferation"}, {"measurement": "GI50", "setting": "MDA-MB-231 cells; MDA-MB-231, MTT activity at 48 hours, 0 to 500 nM", "result": 144, "unit": "nM"}, {"measurement": "cell proliferation (MTT activity) reduced to", "setting": "MDA-MB-231 cells; MDA-MB-231, aptamer 250 nM, 48 hours after transfection", "result": 36, "unit": "%"}, {"measurement": "GI50", "setting": "MCF7 cells; MCF7, MTT activity at 48 hours, 0 to 500 nM", "result": 42, "unit": "nM"}, {"measurement": "cell proliferation (MTT activity) reduced to", "setting": "MCF7 cells; MCF7, aptamer 250 nM, 48 hours after transfection", "result": 51, "unit": "%"}]}
